For one data set, the system named is TA97. As to the kind of experiment: Ames test, Petri dish mixing method, TA97. Format: cell-based. As to conditions: TA97 −S9, positive control, dose not given. Here is the method:
(§1) Test bacteria (TA97, TA98, TA100, TA102) were supplied by the Bureau of Food Inspection, Department of Health in Beijing. […] Using the Petri dish mixing method, two independent tests were carried out.
For orientation: The Ames test uses bacterial strains that need an amino acid and regain growth without it when mutated back.

The next data set concerns TA98. As to the kind of experiment: Ames test, Petri dish mixing method, TA98. Format: cell-based. The conditions noted are these: TA98 −S9, positive control, dose not given. As to the method: as §1
Data set [1] relates to NIH mice. Briefly: Mouse sperm deformation test. It is filed as in vivo. The conditions noted are these: 0.04 g/kg, abdominal injections. An excerpt:
3. Sperm Deformation Test
Twenty five (25) NIH mice with body weights of 18-22 g, randomly divided into 5 groups and continuously force fed for 5 days (the Endoxan positive group received abdominal injections), were used in this test. Thirty five (35) days later, the animals were sacrificed and both testicles were taken out for the standard biopsy preparation and staining. Five thousand (5000) whole sperm from each group were examined under an oil immersion lens and the sperm deformation percentage was calculated.

The test system of data set [2] is NIH mice. As to conditions: for No. of micronuclei: 10000 cells.
Description: Test material: The GLSs were brown powders. After going through a 100 mesh sieve, 120 g of the samples were mixed with 300 mL distilled water (to give a concentration of 40 g/dL) and stirred for 15 min in a stirrer at 7000 rpm. They were then bottled, underwent disinfection and antiseptic treatments, and 1 mL of a pasty liquid was obtained, which was about 0.4 g of the samples. Direct gavage was carried out two times per day.
Mouse Bone Marrow Micronucleus Test:
Seventy (70) NIH mice with body weights of 20-23 g were used in this test. The mice were divided into 7 groups and testing was carried out according to the methods of the Toxicological Evaluation Procedures for Food Safety. Gavage was carried out twice, and 6 hrs after the second force feeding, the mice were sacrificed, and both of the femurs were taken out for the preparation of a biopsy, staining and examination under a microscope.
The subject of a further data set is TA100. Briefly: Ames test, Petri dish mixing method, TA100. As to conditions: TA100 −S9, positive control, dose not given. Format: cell-based. As to the method:
as §1

For a further data set, the system named is SLE mice. As to the kind of experiment: T-lymphocyte populations in SLE mice under different treatments. Format: in vivo. As to the method: Spleens, lymph nodes, and thymus glands were collected under sterile conditions from the DBA/2 or BALB/C mice. Lymphocytes were then isolated and washed with Hanks solution 3 times. Cells were stained with 0.5% trypan blue and examined for viability. The lymphocytes were then adjusted to the desired concentrations.
Kidney tissues were sampled and undergone morphologic analyses under light scope.
Statistical analyses and t test, were carried out using SPAAS 10.0 computer software.

[3] abbreviates: blood at 168 hours after the first dosing, daily oral, GLSs 0.8 g/kg/day, prednisolone solution 50 mL/kg/day.

This is an account of results in patent US6893641B2, “Ganoderma lucidum spores for treatment of autoimmune diseases” (priority 1999, dated 2005).

SMILES strings stand for the structures. “Also recorded” adds a separate entry of the source. Read-outs that look alike come from different tables or passages of the source. Marks after values point to notes of the source that are not given here. A value given as a limit tells only on which side of the number the result lay.

`CCN(CC)CCCC(C)Nc1c2ccc(Cl)cc2nc2ccc(OC)cc12` (centres unmarked) [Atabrine]: the “colonies due to reverse mutation” value with TA97 is above 1500; in the data set with TA98 it was above 1433.
On to `O=P1(N(CCCl)CCCl)NCCCO1` (centres unmarked) [Endoxan], for which, in the data set on NIH mice [1] (5000 sperm), the “No of deformed sperm (count)” value worked out at 98. The Percentage deformation with NIH mice [1] (p < 0.01 vs other groups) is on record as 72.80**. The No. of micronuclei with NIH mice [2] (listed as printed '(0.06)' g/kg under Endoxan) is listed as 249; in the data set on NIH mice [2] (listed as printed '^ Endoxan'), 12. The Percentage of micronuclei in the data set with NIH mice [2] (listed as printed '(0.06)' g/kg under Endoxan, p < 0.001 vs other groups) is reported as 24.9** 0/00; with NIH mice [2] (listed as printed '^ Endoxan'), 1.2 0/00.
As to `[N-]=[N+]=[N-]` [Sodium azide], the “colonies due to reverse mutation” value in the data set with TA100 is recorded as above 1500.
Turning to `C[C@]12C=CC(=O)C=C1CC[C@@H]1[C@@H]2[C@@H](O)C[C@@]2(C)[C@H]1CC[C@]2(O)C(=O)CO` [prednisolone], the “T %, Th %, Ts % and Th/Ts ratio compared with control groups” value in the data set with SLE mice (168 hours after the first dosing) is reported as “much better than those in the SLE control group; also recorded: improved the T cell counts in similar degree as those of GLSs”. In addition, in the data set with SLE mice (setting [3]), the “T(%)” value came to 51.30 ± 4.23%, the “Th (%)” value is 31.44 ± 3.21%, the Th/Ts is recorded as 1.12 ± 0.31 and the “Ts (%)” value is 28.43 ± 3.12%.
